Values joined by “and” are separate entries in the source; they are usually repeats but may differ in a detail not shown here. Identical values can stand only once.

Results on 14 compounds are retold here after patent US3983105A, “Penicillins” (Bayer Aktiengesellschaft, priority 1971, dated 1976).

Holding throughout (format): cell-based
In experiment [1] the test system is Pseudomonas aeruginosa. The experiment is described as follows: MIC, test tube serial dilution, Pseudomonas aeruginosa.
The subject of experiment [2] is Klebsiella-Aerobacter. The experiment is described as follows: MIC, test tube serial dilution, Klebsiella-Aerobacter.
Experiment [3] has as its system Streptococcus faecalis. The experiment is described as follows: MIC, test tube serial dilution, Streptococcus faecalis.
The test system of experiment [4] is Escherichia coli. The experiment is described as follows: MIC, test tube serial dilution, Escherichia coli.
The test system of experiment [5] is Proteus vulgaris. Briefly: MIC, test tube serial dilution, Proteus vulgaris.
Experiment [6] deals with Staphylococcus aureus. Briefly: MIC, test tube serial dilution, Staphylococcus aureus.
Experiment [7] has as its system Proteus morganii. The experiment is described as follows: MIC, test tube serial dilution, Proteus morganii.
The mark [8] stands for this setting: strain 1756 (BRL 1 756), 24 hours, 37°C.

As for `COC(=O)N1CCN(C(=O)N[C@@H](C(=O)N[C@@H]2C(=O)N3[C@@H]2SC(C)(C)[C@@H]3C(=O)O)c2ccccc2)C1=O` [Example 3, Sodium D(-)-α-[(3-methoxycarbonyl-imidazolidin-2-on-1-yl)-carbonylamino]-benzylpenicillin], the MIC in experiment [1] (strain Bonn, 24 hours, 37°C) is listed as 16 U/ml; in experiment [1] (strain Walter, 24 hours, 37°C) it was 16 U/ml; in experiment [2] (strain 63, 24 hours, 37°C), 16 U/ml; in experiment [2] (strain K 10, 24 hours, 37°C), 16 U/ml; in experiment [3] (ATCC 9790, 24 hours, 37°C) it was 64 U/ml; in experiment [4] (strain 183/58, 24 hours, 37°C) it was 4 U/ml. Besides, the results for the MIC in experiment [5] (unit assumed), in experiment [6] (setting [8]) and in experiment [7] (unit assumed) were 8 µg/mL, greater than 256 U/ml and 8 µg/mL, respectively.
On to `CC1(C)S[C@@H]2[C@H](NC(=O)C(NC(=O)N3CCN(S(C)(=O)=O)C3=O)c3cccs3)C(=O)N2[C@H]1C(=O)O` (stereo partly drawn) [Penicillin No. 3 (Table 3), Sodium D,L-α-[(3-methylsulphonyl-imidazolidin-2-on-1-yl)-carbonylamino]-α-thienyl-(2)-mthylpenicillin], for which the MIC in experiment [1] (Table 3, strain F 41) is 64 U/ml; in experiment [1] (Table 3, strain Walter), 64 U/ml; in experiment [2] (Table 3, strain 63), 256 U/ml; in experiment [2] (Table 3, strain K 10), 16 U/ml; in experiment [3] (unit assumed), 32 µg/mL; in experiment [4] (Table 3, strain 14) it was less than 1 U/ml. The MIC in experiment [4] (Table 3, strain 183/58) is reported as 4 U/ml; in experiment [4] (Table 3, strain A 261), 256 U/ml; in experiment [4] (Table 3, strain C 165), 4 U/ml; in experiment [5] (Table 3, strain 1017) it was 4 U/ml; in experiment [6] (Table 3, strain 133), less than 1 U/ml; in experiment [6] (Table 3, strain 1756E) it was 128 U/ml. In experiment [7] (Table 3, strain 932), this compound yielded an MIC of 16 U/ml.
`CC1(C)S[C@@H]2[C@H](NC(=O)[C@H](NC(=O)N3CCN(C(=O)NS(C)(=O)=O)C3=O)c3ccccc3)C(=O)N2[C@H]1C(=O)O` [Example 30, Sodium D(-)-α-[3-(methylsulphonyl-amino-carbonyl)-imidazolidinon-2-yl-1]-carbonylamino-benzylpenicillin]: the MIC is 32 in experiment [1] (in µg/mL (unit assumed)); 128 in experiment [2] (in µg/mL (unit assumed)); 64 U/ml in experiment [2] (strain 63, 24 hours, 37°C); 128 µg/mL in experiment [3] (unit assumed); 64 U/ml in experiment [4] (strain 183/58, 24 hours, 37°C); greater than 256 U/ml in experiment [4] (strain A 261, 24 hours, 37°C). For the same compound, the MIC in experiment [6] (setting [8]) came out at 256 U/ml; in experiment [7] (unit assumed) it was 8 µg/mL.
In the case of `CC(=O)N1CCN(C(=O)NC(C(=O)N[C@@H]2C(=O)N3[C@@H]2SC(C)(C)[C@@H]3C(=O)O)c2ccc(Cl)cc2)C1=O` (stereo partly drawn) [Penicillin No. 7 (Table 3), Sodium D,L-α-[(3-acetylimidazolidin-2-on-1-yl)-carbonyl-amino]-4-chlorobenzylpenicillin], the MIC in experiment [1] (Table 3, strain F 41) came to 128 U/ml; in experiment [1] (Table 3, strain Walter), 64 U/ml; in experiment [2] (Table 3, strain 63), 128 U/ml; in experiment [2] (Table 3, strain K 10) it was 32 U/ml; in experiment [3] (Table 3, ATCC 9790), 64 U/ml; in experiment [4] (Table 3, strain 14), 4 U/ml. The MIC in experiment [4] (Table 3, strain 183/58) is listed as 8 U/ml; in experiment [4] (Table 3, strain A 261), 512 U/ml; in experiment [4] (Table 3, strain C 165), 16 U/ml; in experiment [5] (Table 3, strain 1017), 32 U/ml; in experiment [6] (Table 3, strain 133) it was less than 1 U/ml; in experiment [6] (Table 3, strain 1756E), 64 U/ml. The same compound had an MIC in experiment [7] (Table 3, strain 932) of 16 U/ml.
On to `COC(=O)N1CCN(C(=O)NC(C(=O)N[C@@H]2C(=O)N3[C@@H]2SC(C)(C)[C@@H]3C(=O)O)c2ccc(Cl)cc2)C1=O` (stereo partly drawn) [Penicillin No. 19 (Table 3), Sodium D,L-α-[(3-methoxycarbonyl-imidazolidin-2-on-1-yl)-carbonylamino]-4-chlorobenzylpenicillin], for which the MIC was 64 U/ml in experiment [1] (Table 3, strain F 41); 64 U/ml in experiment [1] (Table 3, strain Walter); 4 U/ml in experiment [2] (Table 3, strain 63); 32 U/ml in experiment [2] (Table 3, strain K 10); 32 µg/mL in experiment [3] (unit assumed); 4 U/ml in experiment [4] (Table 3, strain 14). The MIC in experiment [4] (Table 3, strain 183/58) was 16 U/ml; in experiment [4] (Table 3, strain A 261), greater than 256 U/ml; in experiment [4] (Table 3, strain C 165), 8 U/ml; in experiment [5] (Table 3, strain 1017) it was 32 U/ml; in experiment [6] (Table 3, strain 1756E) it was 128 U/ml; in experiment [7] (Table 3, strain 932) it was 4 U/ml.
For the compound `CC1(C)S[C@@H]2[C@H](NC(=O)[C@H](NC(=O)N3CCN(C(=O)Oc4ccccc4)C3=O)c3ccccc3)C(=O)N2[C@H]1C(=O)O` [Example 11, Sodium D(-)-α-[(3-phenoxycarbonyl-imidazolidin-2-on-1-yl)-carbonylamino]-benzylpenicillin], the MIC is 32 and 16 in experiment [1] (in µg/mL (unit assumed)); 4 in experiment [2] (in µg/mL (unit assumed)); 16 µg/mL in experiment [3] (unit assumed); 16 µg/mL in experiment [5] (unit assumed); 8 µg/mL in experiment [7] (unit assumed).
Take `Cc1ccc(S(=O)(=O)NC2=NCCN2C(=O)N[C@@H](C(=O)N[C@@H]2C(=O)N3[C@@H]2SC(C)(C)[C@@H]3C(=O)O)c2ccccc2)cc1` [Example 25, Sodium D(-)-α-[(2-tosylamino-imidazolin(2)-1-yl)-carbonylamino]-benzylpenicillin]: the MIC is 32 in experiment [1] (in µg/mL (unit assumed)); 64 U/ml in experiment [1] (strain Bonn, 24 hours, 37°C); 64 U/ml in experiment [2] (strain 63, 24 hours, 37°C); 64 U/ml in experiment [2] (strain K 10, 24 hours, 37°C); 16 U/ml in experiment [3] (ATCC 9790, 24 hours, 37°C); 32 U/ml in experiment [4] (strain 183/58, 24 hours, 37°C). Also, the MIC is greater than 256 U/ml in experiment [4] (strain A 261, 24 hours, 37°C); 16 U/ml in experiment [4] (strain C 165, 24 hours, 37°C); 16 U/ml in experiment [5] (strain 1017, 24 hours, 37°C); 64 U/ml in experiment [6] (setting [8]).
In the case of `CC1(C)S[C@@H]2[C@H](NC(=O)[C@H](NC(=O)N3CCN(S(C)(=O)=O)C3=O)c3ccccc3)C(=O)N2[C@H]1C(=O)O` [Penicillin No. 1 (Table 3), Sodium D(-)-α-[(3-methylsulphonyl-imidazolidin-2-on-1-yl)-carbonylamino]-benzylpenicillin], the MIC in experiment [1] (Table 3, strain F 41) is 50 U/ml; in experiment [1] (Table 3, strain Walter) it was 50 U/ml; in experiment [2] (Table 3, strain 63), 12.5 U/ml; in experiment [2] (Table 3, strain K 10), 6.2 U/ml; in experiment [3] (Table 3, ATCC 9790), 25 U/ml; in experiment [4] (Table 3, strain 14) it was less than 0.8 U/ml. Also, the MIC in experiment [4] (Table 3, strain 183/58) is listed as 1.6 U/ml; in experiment [4] (Table 3, strain A 261) it was 200 U/ml; in experiment [5] (Table 3, strain 1017) it was 3.1 U/ml; in experiment [6] (Table 3, strain 133), less than 0.8 U/ml; in experiment [6] (Table 3, strain 1756E), 400 U/ml.
As for `CC1(C)S[C@@H]2[C@H](NC(=O)[C@H](NC(=O)N3CCN(C(=O)Nc4ccccc4)C3=O)c3ccccc3)C(=O)N2[C@H]1C(=O)O` [Example 10, Sodium D(-)-α-[(3-phenylaminocarbonyl-imidazolidin-2-on-1-yl)-carbonylamino]-benzylpenicillin], the MIC was 64 U/ml in experiment [1] (strain Bonn, 24 hours, 37°C); 256 U/ml in experiment [1] (strain Walter, 24 hours, 37°C); 8 in experiment [2] (in µg/mL (unit assumed)); 128 µg/mL in experiment [3] (unit assumed); 4 U/ml in experiment [4] (strain 183/58, 24 hours, 37°C); greater than 256 U/ml in experiment [4] (strain A 261, 24 hours, 37°C). Also, the MIC in experiment [5] (unit assumed) is 8 µg/mL; in experiment [6] (setting [8]) it was greater than 256 U/ml.
With `CC1(C)S[C@@H]2[C@H](NC(=O)[C@H](NC(=O)N3CCN(C(N)=O)C3=O)c3ccccc3)C(=O)N2[C@H]1C(=O)O` [Example 5, Sodium D(-)-α-[(3-aminocarbonyl-imidazolidin-2-on-1-yl)-carbonylamino]-benzylpenicillin], the MIC was 32 in experiment [1] (in µg/mL (unit assumed)); 32 in experiment [2] (in µg/mL (unit assumed)); 16 U/ml in experiment [2] (strain 63, 24 hours, 37°C); 32 µg/mL in experiment [3] (unit assumed); 4 U/ml in experiment [4] (strain 183/58, 24 hours, 37°C); 256 U/ml in experiment [4] (strain A 261, 24 hours, 37°C). Also, the MIC in experiment [6] (setting [8]) is greater than 256 U/ml; in experiment [7] (unit assumed) it was 32 µg/mL.
For `CC1(C)S[C@@H]2[C@H](NC(=O)[C@H](NC(=O)N3CCN(C(=O)c4ccccc4)C3=O)c3ccccc3)C(=O)N2[C@H]1C(=O)O` [Example 12, Sodium D(-)-α-[(3-benzoyl-imidazolidin-2-on-1-yl)-carbonylamino]-benzylpenicillin], the MIC is 32 in experiment [1] (in µg/mL (unit assumed)); 8 in experiment [2] (in µg/mL (unit assumed)); 32 µg/mL in experiment [3] (unit assumed); less than 1 U/ml in experiment [4] (strain 183/58, 24 hours, 37°C); 64 U/ml in experiment [4] (strain A 261, 24 hours, 37°C); 256 U/ml in experiment [6] (setting [8]). This compound gave an MIC in experiment [7] (unit assumed) of 8 µg/mL.
Take `CC1(C)S[C@@H]2[C@H](NC(=O)[C@H](NC(=O)N3CCN=C3NS(C)(=O)=O)c3ccccc3)C(=O)N2[C@H]1C(=O)O` [Example 19, Sodium D(-)-α-[(2-methylsulphonylamino-imidazolin(2)-1-yl)-carbonylamino]-benzylpenicillin]: the MIC in experiment [4] (strain 183/58, 24 hours, 37°C) amounted to 16 U/ml; in experiment [5] (strain 1017, 24 hours, 37°C) it was 16 U/ml; in experiment [5] (unit assumed), 16 µg/mL; in experiment [7] (unit assumed) it was 32 µg/mL.
Consider “Sodium D(-)-α-[(3-methylsulphonyl-4- or 5-methyl-imidazolidin-2-on-1-yl)-carbonylamino]-benzylpenicillin [Example 32]”, for which the MIC in experiment [1] (in µg/mL (unit assumed)) is 256 and 128; in experiment [2] (in µg/mL (unit assumed)), 32 and 16; in experiment [3] (unit assumed) it was 16 µg/mL; in experiment [5] (unit assumed) it was 8 µg/mL; in experiment [7] (unit assumed) it was 8 µg/mL.
For `CC1(C)S[C@@H]2[C@H](NC(=O)[C@H](NC(=O)N3CCN(C(=O)N4CCCC4)C3=O)c3ccccc3)C(=O)N2[C@H]1C(=O)O` [Example 8, Sodium D(-)-α-[(3-pyrrolidyl-N-carbonyl-imidazolidin-2-on-1-yl)-carbonylamino]-benzylpenicillin], the MIC is 32 in experiment [1] (in µg/mL (unit assumed)); 128 µg/mL in experiment [3] (unit assumed); 4 U/ml in experiment [4] (strain 183/58, 24 hours, 37°C); 32 µg/mL in experiment [5] (unit assumed); 128 U/ml in experiment [6] (setting [8]); 64 µg/mL in experiment [7] (unit assumed).
